Series [1] concerns the target T1, 3',5'-cyclic-AMP phosphodiesterase 4D (Homo sapiens, UniProt Q08499). In words: Inhibition of full-length PDE4D2 (unknown origin) using FAM-cAMP as substrate at 1 uM preincubated with compound for 15 mins followed by substrate addition and measured after 30 mins by fluorescence polarization based IMAP assay relative to control. As to conditions: time 45.0 min.
Series [2] relates to RAW264.7. The series can be described thus: Anti-inflammatory activity in mouse RAW264.7 cells assessed as inhibition of LPS-induced TNF-alpha production at 10 uM incubated for 24 hrs by ELISA relative to control. The format is functional. Details: scale not given: the % may be the effect or the level left.
Series [3] deals with RAW264.7. The series can be described thus: Anti-inflammatory activity in mouse RAW264.7 cells assessed as inhibition of LPS-induced TNF-alpha production incubated for 24 hrs by ELISA. It is filed as functional, cell-based. Particulars: RAW264.7, 24 h.
Another series concerns HaCaT. In words: Anti-inflammatory activity in human HaCaT cells assessed as inhibition of M5-induced TNF-alpha production incubated for 24 hrs by ELISA. The format is functional, cell-based. In general terms: In an ELISA, binding on a coated surface is turned into a signal by an enzyme label.
The nature of series [4]: Cytotoxicity against human HaCaT cells assessed as reduction in cell viability incubated for 24 hrs by CCK-8 assay. The format is toxicity, cell-based. On the technique in general: Formazan colour is commonly taken as a measure of viable cells.
The target in series [5] is T1, 3',5'-cyclic-AMP phosphodiesterase 4D. In words: Inhibition of full-length PDE4D2 (unknown origin) using FAM-cAMP as substrate preincubated with compound for 15 mins followed by substrate addition and measured after 30 mins by fluorescence polarization based IMAP assay. (In general: Fluorescence polarisation rises when a labelled molecule tumbles more slowly, as on binding a larger partner.)

The test system of series [6] is RAW264.7. In words: Anti-inflammatory activity in mouse RAW264.7 cells assessed as inhibition of LPS-induced IL-6 production incubated for 24 hrs by ELISA. It is filed as functional, cell-based. Particulars: RAW264.7, 24 h.
A short description of series [7]: Cytotoxicity against mouse RAW264.7 cells assessed as reduction in cell viability incubated for 24 hrs by CCK-8 assay. The format is toxicity, cell-based.

The structures appear in SMILES notation.

By inhibition is commonly meant how much of the control response was suppressed. A word on the IC50: it is the concentration that inhibits the measured activity by half. By CC50 is commonly meant the concentration giving 50% cytotoxicity.

T1 sequence (Q08499 whole entry): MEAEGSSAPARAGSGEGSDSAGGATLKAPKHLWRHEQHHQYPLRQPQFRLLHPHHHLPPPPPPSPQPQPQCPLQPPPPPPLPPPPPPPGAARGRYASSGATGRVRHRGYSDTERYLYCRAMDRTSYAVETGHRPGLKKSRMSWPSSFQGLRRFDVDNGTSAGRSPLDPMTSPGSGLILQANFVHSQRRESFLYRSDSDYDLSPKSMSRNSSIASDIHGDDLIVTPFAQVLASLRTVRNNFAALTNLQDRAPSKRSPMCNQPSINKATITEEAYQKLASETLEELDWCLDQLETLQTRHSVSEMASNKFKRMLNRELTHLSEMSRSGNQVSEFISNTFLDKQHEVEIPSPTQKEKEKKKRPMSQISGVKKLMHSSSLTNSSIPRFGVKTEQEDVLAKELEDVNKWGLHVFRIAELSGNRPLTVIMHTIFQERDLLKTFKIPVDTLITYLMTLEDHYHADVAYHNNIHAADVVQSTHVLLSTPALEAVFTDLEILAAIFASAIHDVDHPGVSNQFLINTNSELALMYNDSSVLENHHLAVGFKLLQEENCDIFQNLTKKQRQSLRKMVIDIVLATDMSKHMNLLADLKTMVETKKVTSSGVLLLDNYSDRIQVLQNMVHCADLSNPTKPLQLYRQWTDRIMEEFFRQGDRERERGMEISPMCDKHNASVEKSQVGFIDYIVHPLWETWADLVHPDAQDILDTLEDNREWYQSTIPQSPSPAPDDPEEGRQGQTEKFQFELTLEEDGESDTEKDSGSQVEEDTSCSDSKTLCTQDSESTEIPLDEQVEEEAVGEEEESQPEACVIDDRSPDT

Turning to `O=C(NCc1c(F)cc(F)cc1F)c1coc(-c2ccc(OC(F)F)c(OCC3CC3)c2)n1`, in series [1], the inhibition was determined as 87.8%. The Activity in the series on RAW264.7 [2] is listed as 7.53%.

Regarding `O=C(O)c1c[nH]c(-c2ccc(OC(F)F)c(OCC3CC3)c2)n1`, the inhibition in series [1] was determined as 35.7%. Moreover, in the series on RAW264.7 [2], the Activity is listed as 4.22%.

`O=C(NCc1ncccn1)c1c[nH]c(-c2ccc(OC(F)F)c(OCC3CC3)c2)n1`: the IC50 in the series on RAW264.7 [3] amounted to 27300 nM; in the series with HaCaT, 19300 nM; in series [5], 0.5 nM; with RAW264.7 [6], 38400 nM. For the same molecule, the CC50 at 24 h in series [4] and in series [7] was greater than 50000 nM throughout.

`COc1ccc(CNC(=O)c2c[nH]c(-c3ccc(OC(F)F)c(OCC4CC4)c3)n2)cn1`: the inhibition in series [1] came out at 94.1%. Also, the Activity with RAW264.7 [2] is 7.74%.

As to `O=C(NCc1ccc(F)c(F)c1)c1c[nH]c(-c2ccc(OC(F)F)c(OCC3CC3)c2)n1`, the half-inhibitory concentration (IC50) in series [5] amounted to 14.9 nM. Besides, the Activity with RAW264.7 [2] worked out at 12.03%.

As for `O=C(NCc1ccc(F)cc1F)c1coc(-c2ccc(OC(F)F)c(OCC3CC3)c2)n1`, in series [1], the inhibition stood at 67.6%. Besides, the Activity in the series on RAW264.7 [2] turned out to be 18.06%.

Take `Cn1cc(NC(=O)c2c[nH]c(-c3ccc(OC(F)F)c(OCC4CC4)c3)n2)cn1`: the inhibition in series [1] worked out at 78.8%. Also, the Activity in the series with RAW264.7 [2] was 27.5%.

For the molecule `Cn1ccc(NC(=O)c2c[nH]c(-c3ccc(OC(F)F)c(OCC4CC4)c3)n2)n1`, the inhibition in series [1] amounted to 58.8%. In addition, the Activity with RAW264.7 [2] stood at 18.46%.

`COC(=O)c1coc(-c2ccc(OC(F)F)c(OCC3CC3)c2)n1`: the inhibition in series [1] came to 70.1%. Moreover, the Activity with RAW264.7 [2] turned out to be 26.96%.

As for `COc1cc(-c2nc(C(=O)Nc3ccc4ncsc4c3)c[nH]2)cc(OC)c1OC(F)F`, the inhibition in series [1] is 8.4%.

Regarding `O=C(O)c1coc(-c2ccc(OC(F)F)c(OCC3CC3)c2)n1`, in series [1], the inhibition turned out to be 46.2%. Moreover, in the series on RAW264.7 [2], the Activity worked out at 10.47%.

Turning to `O=C(Nc1ccccc1)c1c[nH]c(-c2ccc(OC(F)F)c(OCC3CC3)c2)n1`, the inhibition in series [1] was found to be 64.9%. Moreover, the Activity with RAW264.7 [2] was 9.32%.

As for `Cc1ccc(-c2nc(C(=O)Nc3ccncc3)c[nH]2)cc1C`, in series [1], the inhibition amounted to 3.4%. The Activity with RAW264.7 [2] is given as 11.94%.

Take `O=C(Nc1ccncc1)c1c[nH]c(-c2ccc(OC(F)F)c(OCC3CC3)c2)n1`: the inhibition in series [1] was 99.3%. In addition, the Activity in the series on RAW264.7 [2] stood at 15.37%.

As to `O=C(NCc1ccc(F)cc1F)c1c[nH]c(-c2ccc(OC(F)F)c(OCC3CC3)c2)n1`, the IC50 in series [5] stood at 4.74 nM. The Activity in the series on RAW264.7 [2] is on record as 5.16%.

For `O=C(Nc1ccncc1)c1coc(-c2ccc(OC(F)F)c(OCC3CC3)c2)n1`, the inhibition in series [1] was 59%. For the same molecule, in the series with RAW264.7 [2], the Activity was determined as 1.77%.

For `O=C(NCc1ccc2ccccc2c1)c1c[nH]c(-c2ccc(OC(F)F)c(OCC3CC3)c2)n1`, the inhibition in series [1] is 82.3%. Besides, the Activity with RAW264.7 [2] is reported as 9.03%.

Take `O=C(NCc1ncccn1)c1coc(-c2ccc(OC(F)F)c(OCC3CC3)c2)n1`: in series [5], the half-inhibitory concentration (IC50) turned out to be 18.2 nM. Also, the Activity in the series with RAW264.7 [2] was determined as 4.98%.

On to `O=C(NCc1ccccc1)c1c[nH]c(-c2ccc(OC(F)F)c(OCC3CC3)c2)n1`, for which, in series [1], the inhibition came out at 91.1%. In addition, the Activity with RAW264.7 [2] came out at 8.88%.

Regarding `O=C(Nc1ccc2ncsc2c1)c1coc(-c2ccc(OC(F)F)c(OCC3CC3)c2)n1`, the inhibition in series [1] worked out at 39.6%. Besides, the Activity with RAW264.7 [2] is recorded as 25.05%.

On to `O=C(NCc1cc(F)ccc1F)c1c[nH]c(-c2ccc(OC(F)F)c(OC(F)F)c2)n1`, for which the inhibition in series [1] stood at 93.6%. Further, in the series with RAW264.7 [2], the Activity was determined as 14.69%.

As to `O=C(Nc1ccc2[nH]ccc2c1)c1c[nH]c(-c2ccc(OC(F)F)c(OCC3CC3)c2)n1`, the inhibition in series [1] was 83.5%. The Activity in the series on RAW264.7 [2] was 21.36%.

As to `O=C(Nc1ccccc1)c1coc(-c2ccc(OC(F)F)c(OCC3CC3)c2)n1`, the inhibition in series [1] is 38.8%. For the same molecule, the Activity with RAW264.7 [2] is recorded as 15.78%.

With `O=C(NCc1ncccn1)c1c[nH]c(-c2cc(OCC3CC3)c(OC(F)F)c(OCC3CC3)c2)n1`, the inhibition in series [1] was 1.8%.

For the molecule `O=C(Nc1nc2ccccc2s1)c1coc(-c2ccc(OC(F)F)c(OCC3CC3)c2)n1`, the inhibition in series [1] was found to be 33.4%. Also, the Activity in the series with RAW264.7 [2] is given as 25.84%.

As to `O=C(Nc1nccs1)c1coc(-c2ccc(OC(F)F)c(OCC3CC3)c2)n1`, the inhibition in series [1] amounted to 57%. Further, the Activity in the series with RAW264.7 [2] came out at 11.17%.

`O=C(Nc1nccs1)c1c[nH]c(-c2ccc(OC(F)F)c(OCC3CC3)c2)n1`: the half-inhibitory concentration (IC50) in the series with RAW264.7 [3] worked out at 59900 nM. Also, the inhibition in series [1] amounted to 74.3%.

Take `COc1cc(-c2nc(C(=O)NCc3c(F)cccc3F)c[nH]2)cc(OC)c1OC(F)F`: the inhibition in series [1] amounted to 33.3%.

`O=C(NCc1c(F)cccc1F)c1c[nH]c(-c2ccc(OC(F)F)c(OCC3CC3)c2)n1`: in series [5], the IC50 came out at 15.9 nM. The Activity with RAW264.7 [2] turned out to be 13.88%.

With `O=C(NCc1c(F)cccc1F)c1coc(-c2ccc(OC(F)F)c(OCC3CC3)c2)n1`, in series [5], the IC50 came out at 27.3 nM. For the same molecule, the Activity in the series on RAW264.7 [2] is 9.32%.

As for `O=C(NCc1cnccn1)c1c[nH]c(-c2ccc(OC(F)F)c(OCC3CC3)c2)n1`, the inhibition in series [1] was determined as 95.9%. For the same molecule, the Activity in the series with RAW264.7 [2] stood at 16.03%.

For the molecule `O=C(NCC1CCOCC1)c1c[nH]c(-c2ccc(OC(F)F)c(OCC3CC3)c2)n1`, in series [1], the inhibition worked out at 93.9%. Moreover, in the series with RAW264.7 [2], the Activity stood at 24.03%.

Regarding `O=C(NCc1ncccn1)c1c[nH]c(-c2ccc(OC(F)F)c(OC(F)F)c2)n1`, the inhibition in series [1] is 96.3%. Also, in the series with RAW264.7 [2], the Activity came out at 4.06%.

Take `O=C(NCc1ccccn1)c1c[nH]c(-c2ccc(OC(F)F)c(OCC3CC3)c2)n1`: in series [1], the inhibition was determined as 96.7%. Moreover, in the series on RAW264.7 [2], the Activity was found to be 6.39%.

`O=C(NCc1ccc(F)cc1F)c1c[nH]c(-c2ccc(OC(F)F)c(OC(F)F)c2)n1`: the inhibition in series [1] was found to be 88.4%. The Activity in the series on RAW264.7 [2] was determined as 14.32%.

Consider `COc1cc(-c2nc(C(=O)NCc3ncccn3)c[nH]2)cc(OC)c1OC(F)F`, for which, in series [1], the inhibition is 0.8%.

Turning to `O=C(NCc1ccccc1)c1coc(-c2ccc(OC(F)F)c(OCC3CC3)c2)n1`, the inhibition in series [1] was determined as 89.8%. The Activity in the series with RAW264.7 [2] is 8.13%.

For the origin of these results see ChEMBL document CHEMBL6092169, “Development of selective heterocyclic PDE4 inhibitors for treatment of psoriasis” (Eur J Med Chem, 2024).
